From patent US9289490B2, “Combinations and uses thereof” (MORPHOSYS AG, priority 2010, dated 2016) come the findings set out here.

Several values for one entry are separate records, joined by “and”; a condition that tells them apart may be missing. Equal entries are not always repeated.

In assay [1] the test system is NCI-H929 human multiple myeloma cells. Put plainly: NCI-H929 bone lysis SCID mouse MM model, MOR202 and LEN (MicroCT). Format: in vivo, SCID mice. The method, then: 63 SCID mice were inoculated on Day (−7) orthotopically into the right tibia with 2.5×10^6 NCI-H929 MM cells (in 5 μL) in order to induce bone lysis. Lenalidomide (Groups A and D) and Vehicle Control (Group C) treatments started on Day (−1). MOR202 treatments (Groups B and D) started on Day 0. Treatment continued for 6 weeks.
MicroCT Scan was used to assess bone lysis and included […] analysis comprising Total Bone Volume (TBV), Trabecular Bone Volume (Tb.BV), Trabecular Pattern Factor (Tb.Pf) and Structure Model Index (SMI). Table 10 defines each of these parameters.

In the next assay the test system is NCI-H929 cells. In words: Cell proliferation, XTT-based assay. Conditions: NCI-H929 cells.
Where [2] appears, read: LEN 50 mg/kg p.o. once daily, MOR202 3 mg/kg i.p. 3 times weekly, 6 weeks, lower = less bone lysis.
[3] abbreviates: group mean of 10 mice, LEN 50 mg/kg p.o., MOR202 3 mg/kg i.p., 6 weeks.

Procedure for NCI-H929 cells: Cells were collected and distributed in 96-well plates with 5000 cells per well.
After incubation, plates were analyzed for cell proliferation in a quantitative colorimietric XTT-based assay using the cell proliferation kit II (ROCHE, Cell Proliferation Kit II, Cat. No.: 11465015001). For subsequent measurement plates were subjected to Tecan Genios Reader and absorbance at 492 nm was detected.
Increasing amounts of Bortezomib (Velcade®, Lot: No.: #9AZSY00) were applied to AMO-1, LP-1, NCI-H929 and RPMI-8226 cells and incubated for 24 h, 48 h and 72 h. After incubation, period plates were analyzed for cell proliferation in a quantitative colorimietric XTT-based assay using the cell proliferation kit II (ROCHE, Cell Proliferation Kit II, Cat. No.: 11465015001). For subsequent measurement, plates were subjected to Tecan Genios Reader and absorbance at 492 nm was detected.

In the case of `Nc1cccc2c1CN(C1CCC(=O)NC1=O)C2=O` (stereo not shown) [LEN, lenalidomide], in assay [1] (setting [2]), the “Structure Model Index (SMI), individual mouse” value is 2.679 and 2.667 and 2.335 and 2.560 and 2.086 and 2.619 and 2.562 and 2.592 and 2.547 and 3.125; the “Trabecular Pattern Factor (Tb · Pf), individual mouse” value is 24.329 mm^−1 and 23.561 mm^−1 and 22.893 mm^−1 and 28.280 mm^−1 and 22.213 mm^−1 and 30.739 mm^−1 and 24.016 mm^−1 and 29.454 mm^−1 and 24.205 mm^−1 and 38.360 mm^−1. For the same compound, in assay [1] (setting [3]), the “Structure Model Index (SMI), Mean” value is 2.577 and the “Trabecular Pattern Factor (Tb · Pf), Mean” value turned out to be 26.805 mm^−1. Besides, in assay [1] (non-inoculated tibia = 0%, vehicle = 100% bone lysis, MOR202 alone 12 mg/kg, LEN alone 50 mg/kg, combination 3 mg/kg MOR202 and 50 mg/kg LEN), the “Reduction of bone lysis compared to vehicle control” value was 20%. The “Inhibition of cell proliferation by lenalidomide alone (in words)” value in the assay on NCI-H929 cells is given as “significant effect on the proliferation of NCI-H929 cells”. For the same compound, the “Inhibition of cell proliferation by lenalidomide alone (in words)” value in the assay with NCI-H929 cells (listed as Lenalidomide) is on record as “signficantly inhibited cell proliferation”.
